Data taken from patent US4112228A, “7-(D-α-Hydroxy-2-arylacetamido)-3-(2-carboxyalkyl-2,3-dihydro-s-tri azolo-[4,3-b]pyridazin-3-on-6-ylthiomethyl)-3-cephem-4-carboxylic acids and derivatives” (priority 1977, dated 1978).
Values after ≈ are worked out from the molar mass of the structure shown. Where two headings read alike, the source gives them in different places.

How the values were obtained:
Assay in all cases: MIC by Steers' agar dilution method
Pr. morganii = settings: Morganella morganii
Shig. flexneri = assay type: cell-based; settings: Shigella flexneri, MHA
S. pyogenes = tested on: S. pyogenes
E. coli = assay type: cell-based; settings: Escherichia coli

Q: For O=C(O)Cn1nc2ccc(SCC3=C(C(=O)O)N4C(=O)C(NC(=O)[C@H](O)c5ccccc5)[C@H]4SC3)nn2c1=O (stereo partly drawn) [BB-S488, 7-(D-Mandelamido)-3-(2-carboxymethyl-2,3-dihydro-s-triazolo[4,3-b]pyridazin-3-on-6-ylthiomethyl)-3-cephem-4-carboxylic Acid], which MIC (Pr. morganii; A9553, MHA, Table 1) is on record?
A: The MIC was > 100 mg/L.

Q: What about the MIC (Pr. morganii; A20031, MHA, Table 1) of the same compound?
A: The MIC was 0.1 mg/L (≈ 0.175 µM).

Q: What about the MIC (Pr. morganii; Pg-1 A9553 (β-lactamase), HIA, Table 4) of the same compound?
A: The MIC was > 100 mg/L.

Q: And the MIC (Pr. morganii; Pg-1 A9553 (β-lactamase), MHA, Table 4)?
A: The MIC was > 100 mg/L.

Q: And the MIC (Pr. morganii; Pg-1 A9553 (β-lactamase), NA, Table 4)?
A: The MIC was > 100 mg/L.

Q: What about the MIC (Pr. morganii; Pg-1 A9553, MHA, Table 3) of the same compound?
A: The MIC was > 100 mg/L.

Q: What about the MIC (Pr. morganii; Pg-2 A20031, HIA, Table 4) of the same compound?
A: Its MIC is 0.2 mg/L (≈ 0.349 µM).

Q: And the MIC (Pr. morganii; Pg-2 A20031, MHA, Table 3)?
A: Its MIC is 0.2 mg/L (≈ 0.349 µM).

Q: And the MIC (Pr. morganii; Pg-2 A20031, MHA, Table 4)?
A: The MIC was 0.1 mg/L (≈ 0.175 µM).

Q: What about the MIC (Pr. morganii; Pg-2 A20031, NA, Table 4) of the same compound?
A: The MIC was 0.2 mg/L (≈ 0.349 µM).

Q: What about the MIC (Pr. morganii; Pg-3 A9636, MHA, Table 3) of the same compound?
A: Its MIC is 0.8 mg/L (≈ 1.4 µM).

Q: And the MIC (Pr. morganii; Pg-5 A15166, MHA, Table 3)?
A: Its MIC is 0.1 mg/L (≈ 0.175 µM).

Q: And the MIC (Pr. morganii; Pg-6 A20455 (β-lactamase), HIA, Table 4)?
A: Its MIC is 0.8 mg/L (≈ 1.4 µM).

Q: And the MIC (Pr. morganii; Pg-6 A20455 (β-lactamase), MHA, Table 4)?
A: Its MIC is 0.4 mg/L (≈ 0.699 µM).

Q: What about the MIC (Pr. morganii; Pg-6 A20455 (β-lactamase), NA, Table 4) of the same compound?
A: Its MIC is 0.4 mg/L (≈ 0.699 µM).

Q: What about the MIC (Pr. morganii; Pg-6 A20455, MHA, Table 3) of the same compound?
A: Its MIC is 0.4 mg/L (≈ 0.699 µM).

Q: What about the MIC (Pr. morganii; Pg-7 A20457, MHA, Table 3) of the same compound?
A: Its MIC is 0.2 mg/L (≈ 0.349 µM).

Q: And the MIC (Pr. morganii; Pg-8 A15153, MHA, Table 3)?
A: Its MIC is 0.1 mg/L (≈ 0.175 µM).

Q: What about the MIC (Pr. morganii; Pg-9 A15149, MHA, Table 3) of the same compound?
A: The MIC was 0.8 mg/L (≈ 1.4 µM).

Q: What about the MIC (Pr. morganii; strain not given (1st of 2), MHA, Example 10) of the same compound?
A: Its MIC is > 100 mg/L.

Q: And the MIC (Pr. morganii; strain not named (2nd of 2), MHA, Example 10)?
A: Its MIC is 0.2 mg/L (≈ 0.349 µM).

Q: And the MIC (Shig. flexneri; A9684, Table 1)?
A: The MIC was 12.5 mg/L (≈ 21.8 µM).

Q: And the MIC (Shig. flexneri; Example 10)?
A: The MIC was 25 mg/L (≈ 43.7 µM).

Q: What about the MIC (Shig. flexneri; Sr-1 A9684, Table 3) of the same compound?
A: The MIC was 12.5 mg/L (≈ 21.8 µM).

Q: What about the MIC (S. pyogenes) of the same compound?
A: Its MIC is 0.2 mg/L (≈ 0.349 µM).

Q: And the MIC (S. pyogenes; Sp-2 Dick, MHA, Table 2)?
A: Its MIC is 0.4 mg/L (≈ 0.699 µM).

Q: What about the MIC (S. pyogenes; Sp-3 A9604, MHA, Table 2) of the same compound?
A: Its MIC is 0.4 mg/L (≈ 0.699 µM).

Q: And the MIC (S. pyogenes; Sp-5 A15040, MHA, Table 2)?
A: Its MIC is 0.4 mg/L (≈ 0.699 µM).

Q: And the MIC (S. pyogenes; Sp-6 A20066, MHA, Table 2)?
A: Its MIC is 0.4 mg/L (≈ 0.699 µM).

Q: What about the MIC (S. pyogenes; Sp-7 Dig 7, MHA, Table 2) of the same compound?
A: Its MIC is 0.4 mg/L (≈ 0.699 µM).

Q: What about the MIC (S. pyogenes; Sp-8 A15041, MHA, Table 2) of the same compound?
A: Its MIC is 0.4 mg/L (≈ 0.699 µM).

Q: What about the MIC (S. pyogenes; Sp-9 A20201, MHA, Table 2) of the same compound?
A: Its MIC is 0.4 mg/L (≈ 0.699 µM).

Q: And the MIC (S. pyogenes; Sp-10 A20202, MHA, Table 2)?
A: The MIC was 0.4 mg/L (≈ 0.699 µM).

Q: And the MIC (S. pyogenes; Streptococcus pyogenes)?
A: Its MIC is 0.4 mg/L (≈ 0.699 µM).

Q: What about the MIC (E. coli; A9660, MHA, Table 1, read-out: MIC) of the same compound?
A: The MIC was 0.05 mg/L (≈ 0.0873 µM).

Q: What about the MIC (E. coli; A15147, MHA, Table 1, read-out: MIC) of the same compound?
A: The MIC was 3.1 mg/L (≈ 5.41 µM).

Q: And the MIC (E. coli; A15810, MHA, Table 1, read-out: MIC)?
A: Its MIC is 0.1 mg/L (≈ 0.175 µM).

Q: And the MIC (E. coli; ATCC8739, ATCC 8739, MHA, Example 10)?
A: The MIC was 6.3 mg/L (≈ 11 µM).

Q: And the MIC (E. coli; ATCC8739, ATCC 8739, MHA, Table 1, read-out: MIC)?
A: Its MIC is 0.1 mg/L (≈ 0.175 µM).

Q: What about the MIC (E. coli; ATCC8739, Ec-15 ATCC 8739, HIA, Table 4, read-out: MIC) of the same compound?
A: Its MIC is 0.2 mg/L (≈ 0.349 µM).

Q: And the MIC (E. coli; ATCC8739, Ec-15 ATCC 8739, MHA, Table 3, read-out: MIC)?
A: Its MIC is 0.2 mg/L (≈ 0.349 µM).

Q: What about the MIC (E. coli; ATCC8739, Ec-15 ATCC 8739, MHA, Table 4, read-out: MIC) of the same compound?
A: Its MIC is 0.2 mg/L (≈ 0.349 µM).

Q: And the MIC (E. coli; ATCC8739, Ec-15 ATCC 8739, NA, Table 4, read-out: MIC)?
A: Its MIC is 0.1 mg/L (≈ 0.175 µM).

Q: And the MIC (E. coli; BX-1373, MHA, Example 10, read-out: MIC)?
A: The MIC was 3.1 mg/L (≈ 5.41 µM).

Q: What about the MIC (E. coli; BX-1373, MHA, Table 1, read-out: MIC) of the same compound?
A: The MIC was 0.2 mg/L (≈ 0.349 µM).

Q: And the MIC (E. coli; Ec-1 NIHJ, HIA, Table 4, read-out: MIC)?
A: The MIC was 0.05 mg/L (≈ 0.0873 µM).

Q: And the MIC (E. coli; Ec-1 NIHJ, MHA, Table 3, read-out: MIC)?
A: Its MIC is 0.2 mg/L (≈ 0.349 µM).

Q: And the MIC (E. coli; Ec-1 NIHJ, MHA, Table 4, read-out: MIC)?
A: Its MIC is 0.05 mg/L (≈ 0.0873 µM).

Q: What about the MIC (E. coli; Ec-1 NIHJ, NA, Table 4, read-out: MIC) of the same compound?
A: Its MIC is 0.1 mg/L (≈ 0.175 µM).

Q: And the MIC (E. coli; Ec-3 Juhl A15119, HIA, Table 4, read-out: MIC)?
A: The MIC was 0.4 mg/L (≈ 0.699 µM).

Q: What about the MIC (E. coli; Ec-3 Juhl A15119, MHA, Table 3, read-out: MIC) of the same compound?
A: The MIC was 0.2 mg/L (≈ 0.349 µM).

Q: And the MIC (E. coli; Ec-3 Juhl A15119, MHA, Table 4, read-out: MIC)?
A: The MIC was 0.2 mg/L (≈ 0.349 µM).

Q: What about the MIC (E. coli; Ec-3 Juhl A15119, NA, Table 4, read-out: MIC) of the same compound?
A: Its MIC is 0.2 mg/L (≈ 0.349 µM).

Q: And the MIC (E. coli; Ec-4 A15169, MHA, Table 3, read-out: MIC)?
A: Its MIC is 12.5 mg/L (≈ 21.8 µM).

Q: And the MIC (E. coli; Ec-5 K-12, ML-1630 A20363, MHA, Table 3, read-out: MIC)?
A: The MIC was 0.2 mg/L (≈ 0.349 µM).

Q: And the MIC (E. coli; Ec-11 A20366 (β-lactamase), HIA, Table 4, read-out: MIC)?
A: The MIC was > 100 mg/L.

Q: And the MIC (E. coli; Ec-11 A20366 (β-lactamase), MHA, Table 4, read-out: MIC)?
A: Its MIC is > 100 mg/L.

Q: And the MIC (E. coli; Ec-11 A20366 (β-lactamase), NA, Table 4, read-out: MIC)?
A: Its MIC is > 100 mg/L.

Q: What about the MIC (E. coli; Ec-11 A20366, MHA, Table 3, read-out: MIC) of the same compound?
A: The MIC was 50 mg/L (≈ 87.3 µM).

Q: What about the MIC (E. coli; Ec-34 A9660, MHA, Table 3, read-out: MIC) of the same compound?
A: Its MIC is 0.1 mg/L (≈ 0.175 µM).

Q: What about the MIC (E. coli; Ec-35 A9435, MHA, Table 3, read-out: MIC) of the same compound?
A: The MIC was 0.4 mg/L (≈ 0.699 µM).

Q: What about the MIC (E. coli; Ec-36 A15147 (β-lactamase), HIA, Table 4, read-out: MIC) of the same compound?
A: Its MIC is 6.3 mg/L (≈ 11 µM).

Q: What about the MIC (E. coli; Ec-36 A15147 (β-lactamase), MHA, Table 4, read-out: MIC) of the same compound?
A: The MIC was 6.3 mg/L (≈ 11 µM).

Q: And the MIC (E. coli; Ec-36 A15147 (β-lactamase), NA, Table 4, read-out: MIC)?
A: The MIC was 6.3 mg/L (≈ 11 µM).

Q: And the MIC (E. coli; Ec-36 A15147, MHA, Table 3, read-out: MIC)?
A: Its MIC is 3.1 mg/L (≈ 5.41 µM).

Q: And the MIC (E. coli; Ec-40 A20361, MHA, Table 3, read-out: MIC)?
A: The MIC was 0.2 mg/L (≈ 0.349 µM).

Q: What about the MIC (E. coli; Ec-44 A9535, MHA, Table 3, read-out: MIC) of the same compound?
A: Its MIC is 0.1 mg/L (≈ 0.175 µM).

Q: What about the MIC (E. coli; Ec-45 A15148, MHA, Table 3, read-out: MIC) of the same compound?
A: Its MIC is 3.1 mg/L (≈ 5.41 µM).

Q: And the MIC (E. coli; Ec-46 A15164 (β-lactamase), HIA, Table 4, read-out: MIC)?
A: Its MIC is > 100 mg/L.

Q: What about the MIC (E. coli; Ec-46 A15164 (β-lactamase), MHA, Table 4, read-out: MIC) of the same compound?
A: The MIC was 100 mg/L (≈ 175 µM).

Q: What about the MIC (E. coli; Ec-46 A15164 (β-lactamase), NA, Table 4, read-out: MIC) of the same compound?
A: Its MIC is 50 mg/L (≈ 87.3 µM).

Q: What about the MIC (E. coli; Ec-46 A15164, MHA, Table 3, read-out: MIC) of the same compound?
A: Its MIC is 25 mg/L (≈ 43.7 µM).
